{"source": "patent US20150079000A1", "about": "“Labelled Quinoxaline Derivatives as Multimodal Radiopharmaceuticals and Their Precursors” (INSTITUT NATIONAL DE LA SANTET DE LA RECHERCHE MEDICALE, priority 2012, published 2015)", "key": {"[1]": {"tested_on": "B16 murine melanoma tumours", "assay": "Ex vivo biodistribution study for compound [125I](1)", "type": "in vivo, C57BL/6J mice", "experimental": "Twenty four B16BL6 primary melanoma bearing mice were intravenously injected with 2.2 MBq of [^1251]1 and sacrificed 1 h, 3 h, 6 h, 24 h, 72 h and 10 days after tracer injection (n=4/time point). Tumours and major organs and tissues were promptly excised, harvested, weighted and their radioactivity counted using a calibrated γ-counter with a […] energy window. After radioactive decay correction, results were expressed as percentage of injected dose per gram of tissue (% ID/g)."}, "[2]": {"assay": "Metabolism of compound [125I](1)", "type": "in vivo, mice", "experimental": "24 primary melanoma bearing mice were intravenously injected with 2.2 MBq of [^1251](1) and sacrificed 1 h, 3 h, 6 h, 24 h, 72 h and 10 days after tracer injection. To determine the metabolic stability of [^1251](1), blood, tumour, eyes, liver, kidney and urine samples were collected at each time point […]. Faeces were collected between 0-24 h and 24-48 h. Blood was immediately diluted in 5 mL of methanol/NH4OH 99.8:0.2 and centrifuged for 5 min at 3,000 rpm. Tumour, eyes, liver, kidneys and faeces were suspended in 5 mL of methanol/NH4OH 99.8:0.2, homogenized using GentleMACS™ dissociator (Miltenyi Biotec, Bergisch Gladbach, Germany) and centrifuged for 5 min at 3,000 rpm (repeated 2 times). Urines were analysed without any treatment. The extraction efficiency was determined by measuring the radioactivity of supernatants and precipitates. Supernatants were passed through a 0.22 μm Millipore filter and then concentrated to a volume between 200 and 500 μL before injection (duplicate) onto the analytical HPLC(C18 column; solvent A: H2O (0.2% NH4OH); solvent B: MeOH (0.2% NH4OH); Gradient elution: 0-5 min: 90 to 70% of A (Q=0.5 mL·min^−1); 5-30 min: 70 to 20% of A (Q=0.9 mL·min^−1); 30-32 min: 10% of A (Q=0.9 mL·min^−1))."}}}
{"compound": "CCN(CCNC(=O)c1cnc2cc([125I])ccc2n1)CCOCCOCCOCCF", "note": "[[^125I](1)]", "values": [{"measurement": "% ID/g Small intestine", "setting": "[1]; 24 h p.i.", "value": "0.12 ± 0.03", "unit": "% ID/g"}, {"measurement": "% ID/g Spleen", "setting": "[1]; 24 h p.i.", "value": "0.06 ± 0.01", "unit": "% ID/g"}, {"measurement": "% ID/g Stomach", "setting": "[1]; 24 h p.i.", "value": "0.54 ± 0.25", "unit": "% ID/g"}, {"measurement": "% ID/g Testes", "setting": "[1]; 24 h p.i.", "value": "0.03 ± 0.01", "unit": "% ID/g"}, {"measurement": "% ID/g Adipose", "setting": "[1]; 72 h p.i.", "value": "0.02 ± 0.00", "unit": "% ID/g"}, {"measurement": "% ID/g Bones", "setting": "[1]; 72 h p.i.", "value": "0.02 ± 0.01", "unit": "% ID/g"}, {"measurement": "% ID/g Brain", "setting": "[1]; 72 h p.i.", "value": "0.01 ± 0.00", "unit": "% ID/g"}, {"measurement": "% ID/g Ceacum", "setting": "[1]; 72 h p.i.", "value": "0.33 ± 0.29", "unit": "% ID/g"}, {"measurement": "% ID/g Colon", "setting": "[1]; 72 h p.i.", "value": "0.25 ± 0.10", "unit": "% ID/g"}, {"measurement": "% ID/g Heart", "setting": "[1]; 72 h p.i.", "value": "0.08 ± 0.02", "unit": "% ID/g"}, {"measurement": "% ID/g Kidney", "setting": "[1]; 72 h p.i.", "value": "0.24 ± 0.04", "unit": "% ID/g"}, {"measurement": "% ID/g Liver", "setting": "[1]; 72 h p.i.", "value": "0.08 ± 0.00", "unit": "% ID/g"}, {"measurement": "% ID/g Lung", "setting": "[1]; 72 h p.i.", "value": "0.05 ± 0.01", "unit": "% ID/g"}, {"measurement": "% ID/g Muscle", "setting": "[1]; 72 h p.i.", "value": "0.02 ± 0.00", "unit": "% ID/g"}, {"measurement": "% ID/g Pancreas", "setting": "[1]; 72 h p.i.", "value": "0.03 ± 0.01", "unit": "% ID/g"}, {"measurement": "% ID/g Skin", "setting": "[1]; 72 h p.i.", "value": "0.50 ± 0.26", "unit": "% ID/g"}, {"measurement": "% ID/g Small intestine", "setting": "[1]; 72 h p.i.", "value": "0.07 ± 0.03", "unit": "% ID/g"}, {"measurement": "% ID/g Spleen", "setting": "[1]; 72 h p.i.", "value": "0.52 ± 0.96", "unit": "% ID/g"}, {"measurement": "% ID/g Stomach", "setting": "[1]; 72 h p.i.", "value": "0.16 ± 0.05", "unit": "% ID/g"}, {"measurement": "% ID/g Testes", "setting": "[1]; 72 h p.i.", "value": "0.02 ± 0.00", "unit": "% ID/g"}, {"measurement": "% ID/g Adipose", "setting": "[1]; 10 d p.i.", "value": "0.01 ± 0.01", "unit": "% ID/g"}, {"measurement": "% ID/g Bones", "setting": "[1]; 10 d p.i.", "value": "0.01 ± 0.01", "unit": "% ID/g"}, {"measurement": "% ID/g Brain", "setting": "[1]; 10 d p.i.", "value": "0.00 ± 0.00", "unit": "% ID/g"}, {"measurement": "% ID/g Ceacum", "setting": "[1]; 10 d p.i.", "value": "0.02 ± 0.02", "unit": "% ID/g"}, {"measurement": "% ID/g Colon", "setting": "[1]; 10 d p.i.", "value": "0.02 ± 0.01", "unit": "% ID/g"}, {"measurement": "% ID/g Heart", "setting": "[1]; 10 d p.i.", "value": "0.03 ± 0.01", "unit": "% ID/g"}, {"measurement": "% ID/g Kidney", "setting": "[1]; 10 d p.i.", "value": "0.04 ± 0.03", "unit": "% ID/g"}, {"measurement": "% ID/g Liver", "setting": "[1]; 10 d p.i.", "value": "0.01 ± 0.00", "unit": "% ID/g"}, {"measurement": "% ID/g Lung", "setting": "[1]; 10 d p.i.", "value": "0.01 ± 0.01", "unit": "% ID/g"}, {"measurement": "% ID/g Muscle", "setting": "[1]; 10 d p.i.", "value": "0.01 ± 0.06", "unit": "% ID/g"}, {"measurement": "% ID/g Pancreas", "setting": "[1]; 10 d p.i.", "value": "0.02 ± 0.03", "unit": "% ID/g"}, {"measurement": "% ID/g Skin", "setting": "[1]; 10 d p.i.", "value": "0.05 ± 0.06", "unit": "% ID/g"}, {"measurement": "% ID/g Small intestine", "setting": "[1]; 10 d p.i.", "value": "0.01 ± 0.00", "unit": "% ID/g"}, {"measurement": "% ID/g Spleen", "setting": "[1]; 10 d p.i.", "value": "0.23 ± 0.41", "unit": "% ID/g"}, {"measurement": "% ID/g Stomach", "setting": "[1]; 10 d p.i.", "value": "0.03 ± 0.01", "unit": "% ID/g"}, {"measurement": "% ID/g Testes", "setting": "[1]; 10 d p.i.", "value": "0.00 ± 0.00", "unit": "% ID/g"}, {"measurement": "% of radioactivity", "setting": "[2]; Blood, 1 h after [125I](1) injection", "value": "2.0 ± 2.8", "unit": "%"}, {"measurement": "% of radioactivity", "setting": "[2]; Blood, 3 h after [125I](1) injection", "value": "0.0 ± 0.0", "unit": "%"}, {"measurement": "% of radioactivity", "setting": "[2]; Blood, 6 h after [125I](1) injection", "value": "3.5 ± 4.9", "unit": "%"}, {"measurement": "% of radioactivity", "setting": "[2]; Eyes, 1 h after [125I](1) injection", "value": "90.5 ± 0.7", "unit": "%"}, {"measurement": "% of radioactivity", "setting": "[2]; Eyes, 3 h after [125I](1) injection", "value": "94.5 ± 2.1", "unit": "%"}, {"measurement": "% of radioactivity", "setting": "[2]; Eyes, 6 h after [125I](1) injection", "value": "96.0 ± 5.7", "unit": "%"}, {"measurement": "% of radioactivity", "setting": "[2]; Eyes, 24 h after [125I](1) injection", "value": "90.0 ± 2.8", "unit": "%"}, {"measurement": "% of radioactivity", "setting": "[2]; Eyes, 72 h after [125I](1) injection", "value": "96.5 ± 4.9", "unit": "%"}, {"measurement": "% of radioactivity", "setting": "[2]; Eyes, 10 d after [125I](1) injection", "value": "100.0 ± 0.0", "unit": "%"}, {"measurement": "% of radioactivity", "setting": "[2]; Feces, (grid: 3 h; faeces collected 24-48 h)", "value": "2.5 ± 0.7", "unit": "%"}, {"measurement": "% of radioactivity", "setting": "[2]; Feces, first value column (grid: 1 h; faeces collected 0-24 h)", "value": "5.0 ± 0.0", "unit": "%"}, {"measurement": "% of radioactivity", "setting": "[2]; Kidney, 1 h after [125I](1) injection", "value": "12.5 ± 2.1", "unit": "%"}, {"measurement": "% of radioactivity", "setting": "[2]; Kidney, 3 h after [125I](1) injection", "value": "6.1 ± 2.9", "unit": "%"}, {"measurement": "% of radioactivity", "setting": "[2]; Kidney, 6 h after [125I](1) injection", "value": "0.0 ± 0.0", "unit": "%"}, {"measurement": "% of radioactivity", "setting": "[2]; Liver, 1 h after [125I](1) injection", "value": "27.5 ± 0.7", "unit": "%"}, {"measurement": "% of radioactivity", "setting": "[2]; Liver, 3 h after [125I](1) injection", "value": "24.0 ± 4.2", "unit": "%"}, {"measurement": "% of radioactivity", "setting": "[2]; Liver, 6 h after [125I](1) injection", "value": "8.5 ± 0.7", "unit": "%"}, {"measurement": "% of radioactivity", "setting": "[2]; Liver, 24 h after [125I](1) injection", "value": "0.0 ± 0.0", "unit": "%"}, {"measurement": "% of radioactivity", "setting": "[2]; Tumour, 1 h after [125I](1) injection", "value": "87.0 ± 1.4", "unit": "%"}, {"measurement": "% of radioactivity", "setting": "[2]; Tumour, 3 h after [125I](1) injection", "value": "81.0 ± 1.4", "unit": "%"}, {"measurement": "% of radioactivity", "setting": "[2]; Tumour, 6 h after [125I](1) injection", "value": "77.0 ± 0.0", "unit": "%"}, {"measurement": "% of radioactivity", "setting": "[2]; Tumour, 24 h after [125I](1) injection", "value": "92.5 ± 9.2", "unit": "%"}, {"measurement": "% of radioactivity", "setting": "[2]; Tumour, 72 h after [125I](1) injection", "value": "91.5 ± 3.5", "unit": "%"}, {"measurement": "% of radioactivity", "setting": "[2]; Tumour, 10 d after [125I](1) injection", "value": "100.0 ± 0.0", "unit": "%"}, {"measurement": "% of radioactivity", "setting": "[2]; Urine, 1 h after [125I](1) injection", "value": "12.6 ± 0.5", "unit": "%"}, {"measurement": "% of radioactivity", "setting": "[2]; Urine, 3 h after [125I](1) injection", "value": "0.0 ± 0.0", "unit": "%"}, {"measurement": "% of radioactivity", "setting": "[2]; Urine, 6 h after [125I](1) injection", "value": "0.0 ± 0.0", "unit": "%"}, {"measurement": "% of radioactivity", "setting": "[2]; Urine, 24 h after [125I](1) injection", "value": "0.0 ± 0.0", "unit": "%"}, {"measurement": "% of radioactivity", "setting": "[2]; Urine, 72 h after [125I](1) injection", "value": "0.0 ± 0.0", "unit": "%"}]}
